Ten compounds from ChEMBL document CHEMBL2010741, “Synthesis and evaluation of a new series of 1'-cyclobutyl-6-(4-piperidyloxy)spiro[benzopyran-2,4'-piperidine] derivatives as high affinity and selective histamine-3 receptor (H3R) antagonists” (Bioorg Med Chem Lett, 2012) can be followed below.

Structures are written as SMILES.

For one data set, the target named is Cytochrome P450 2C9 (Homo sapiens, UniProt P11712). The data set can be described thus: Inhibition of CYP2C9. It is filed as ADME.
Data set [1] in a line: Aqueous solubility of the compound at pH 7.4. It is filed as physicochemical. To be noted: buffer.
Data set [2] in a line: Half life in rat liver microsomes. It is filed as ADME, Microsome. On the technique in general: Liver microsomes are a subcellular fraction often used to study metabolism.
The nature of data set [3]: Ratio of drug level in brain to plasma of rat at 10 mg/kg, ip after 1 hr. To be noted: read-out: BPR. It is filed as ADME, organism-based. More on the design: dose 10 mg/kg, route intraperitoneal.
Another data set deals with Cytochrome P450 2C19 (Homo sapiens, UniProt P33261). The data set can be described thus: Inhibition of CYP2C19. It is filed as ADME.
The nature of data set [4]: Cmax in rat at 5 mg/kg, po. It is filed as ADME, organism-based. Also noted: dose 5 mg/kg, route oral. To be noted: in vivo.
A short description of data set [5]: Volume of distribution in rat at 1 mg/kg, iv. More on the design: dose 1 mg/kg, route intravenous. It is filed as ADME, organism-based. To be noted: in vivo.
The target of another data set is Cytochrome P450 3A4 (Homo sapiens, UniProt P08684). In words: Inhibition of CYP3A4. It is filed as ADME.
The nature of data set [6]: Half life in human liver microsomes. It is filed as ADME, Microsome.
Data set [7] has as its target T1, Histamine H3 receptor (Homo sapiens, UniProt Q9Y5N1). The data set can be described thus: Displacement of [3H]-N-alpha-methylhistamine from human cloned histamine H3 receptor expressed in CHO cells. It is filed as cell-based. Background: Loss of bound radioactivity is the signal in a displacement assay; it reports binding, not function.
The nature of data set [8]: Oral bioavailability in rat at 5 mg/kg. To be noted: in vivo. It is filed as ADME, organism-based.
Data set [9] in a line: Clearance in rat at 1 mg/kg, iv. To be noted: in vivo. Also noted: dose 1 mg/kg, route intravenous. It is filed as ADME, organism-based.
A short description of data set [10]: AUC (infinity) in rat at 5 mg/kg, po. It is filed as ADME, organism-based. Also noted: time infinity, dose 5 mg/kg, route oral. To be noted: plasma.
Data set [11] can be described thus: Half life in dog liver microsomes. It is filed as ADME, Canis lupus familiaris, Microsome.
Data set [12] can be described thus: Half life in rat at 1 mg/kg, iv. More on the design: dose 1 mg/kg, route intravenous. It is filed as ADME, organism-based. To be noted: in vivo.
For a further data set, the target named is T2, Cytochrome P450 1A2 (Homo sapiens, UniProt P05177).
T2 sequence (P05177 whole entry): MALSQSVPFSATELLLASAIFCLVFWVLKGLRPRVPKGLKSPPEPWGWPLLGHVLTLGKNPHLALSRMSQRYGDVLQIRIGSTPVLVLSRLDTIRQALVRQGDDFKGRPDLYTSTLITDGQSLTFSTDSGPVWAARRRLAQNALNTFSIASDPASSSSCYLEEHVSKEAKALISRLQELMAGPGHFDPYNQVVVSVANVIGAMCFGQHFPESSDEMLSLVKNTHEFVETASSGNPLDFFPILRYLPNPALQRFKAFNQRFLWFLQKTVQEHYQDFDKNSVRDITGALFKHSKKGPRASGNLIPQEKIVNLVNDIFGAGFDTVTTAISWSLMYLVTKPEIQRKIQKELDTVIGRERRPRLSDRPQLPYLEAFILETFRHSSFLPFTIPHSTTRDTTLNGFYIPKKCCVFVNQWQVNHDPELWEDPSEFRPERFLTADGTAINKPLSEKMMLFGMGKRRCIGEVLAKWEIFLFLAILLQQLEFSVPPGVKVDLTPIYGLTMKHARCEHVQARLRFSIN
The data set can be described thus: Inhibition of CYP1A2. It is filed as ADME.

Data set [13] is described as follows: Half life in mouse liver microsomes. It is filed as ADME, Microsome.
Data set [14] concerns the target Histamine H3 receptor (Rattus norvegicus, UniProt Q9QYN8). The data set can be described thus: Displacement of [3H]N-alpha-methylhistamine from rat cloned histamine H3 receptor expressed in CHO cells. It is filed as cell-based.
The next data set has as its target Cytochrome P450 2D6 (Homo sapiens, UniProt P10635). In words: Inhibition of CYP2D6. It is filed as ADME.
In data set [15] the target is T1, Histamine H3 receptor. To be noted: CHO, 10 uM.
The target of data set [16] is Histamine H3 receptor (Rattus norvegicus) (UniProt Q9QYN8). To be noted: CHO, 10 uM.
The target in data set [17] is Histamine H4 receptor (Homo sapiens) (UniProt Q9H3N8). The data set can be described thus: Inhibition of human H4 receptor at 10 uM.
For data set [18], the target named is Histamine H2 receptor (Homo sapiens) (UniProt P25021). In words: Inhibition of human H2 receptor at 10 uM.
The target in data set [19] is Histamine H1 receptor (Homo sapiens) (UniProt P35367). The data set can be described thus: Inhibition of human H1 receptor at 10 uM.
Sequence of Histamine H1 receptor (Homo sapiens) (P35367 whole entry): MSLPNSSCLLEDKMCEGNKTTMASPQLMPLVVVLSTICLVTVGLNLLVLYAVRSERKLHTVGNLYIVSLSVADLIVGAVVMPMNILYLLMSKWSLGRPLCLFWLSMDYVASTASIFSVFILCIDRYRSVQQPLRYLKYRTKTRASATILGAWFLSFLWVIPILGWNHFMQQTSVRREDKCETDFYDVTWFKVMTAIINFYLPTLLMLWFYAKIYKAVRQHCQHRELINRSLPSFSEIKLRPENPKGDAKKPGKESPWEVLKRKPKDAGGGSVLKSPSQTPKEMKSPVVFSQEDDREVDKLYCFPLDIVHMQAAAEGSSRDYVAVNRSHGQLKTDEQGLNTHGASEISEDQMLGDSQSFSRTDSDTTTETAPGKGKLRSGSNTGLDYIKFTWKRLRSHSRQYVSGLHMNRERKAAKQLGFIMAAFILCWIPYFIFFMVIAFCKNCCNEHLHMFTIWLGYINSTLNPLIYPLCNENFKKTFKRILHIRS

Sequence of Cytochrome P450 2C19 (P33261 whole entry): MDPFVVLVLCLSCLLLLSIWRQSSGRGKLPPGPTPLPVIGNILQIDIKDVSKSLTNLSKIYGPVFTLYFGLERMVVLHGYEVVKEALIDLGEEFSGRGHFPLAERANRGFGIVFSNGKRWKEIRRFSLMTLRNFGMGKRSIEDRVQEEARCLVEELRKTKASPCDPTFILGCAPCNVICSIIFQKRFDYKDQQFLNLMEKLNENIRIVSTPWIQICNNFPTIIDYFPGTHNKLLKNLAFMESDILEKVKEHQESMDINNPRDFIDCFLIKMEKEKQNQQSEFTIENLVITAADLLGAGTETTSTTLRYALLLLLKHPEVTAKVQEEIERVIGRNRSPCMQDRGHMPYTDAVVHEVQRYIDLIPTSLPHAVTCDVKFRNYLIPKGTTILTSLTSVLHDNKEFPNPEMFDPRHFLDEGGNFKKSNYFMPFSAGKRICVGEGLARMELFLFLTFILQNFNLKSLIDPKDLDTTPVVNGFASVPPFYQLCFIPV
Sequence of Cytochrome P450 2D6 (P10635 whole entry): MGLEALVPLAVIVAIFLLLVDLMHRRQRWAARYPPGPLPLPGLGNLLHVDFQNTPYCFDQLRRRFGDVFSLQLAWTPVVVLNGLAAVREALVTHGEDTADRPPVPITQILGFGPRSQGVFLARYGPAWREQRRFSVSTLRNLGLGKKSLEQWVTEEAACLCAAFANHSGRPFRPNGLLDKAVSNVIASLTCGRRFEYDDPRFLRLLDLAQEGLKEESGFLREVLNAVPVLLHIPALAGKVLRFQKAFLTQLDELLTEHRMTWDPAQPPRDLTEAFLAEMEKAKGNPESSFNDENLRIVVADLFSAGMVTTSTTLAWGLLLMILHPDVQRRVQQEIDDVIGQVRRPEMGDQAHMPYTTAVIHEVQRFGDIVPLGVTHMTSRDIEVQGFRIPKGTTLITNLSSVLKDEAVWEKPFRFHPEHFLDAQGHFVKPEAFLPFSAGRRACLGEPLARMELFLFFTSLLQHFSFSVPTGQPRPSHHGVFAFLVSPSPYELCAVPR
Sequence of Cytochrome P450 3A4 (P08684 whole entry): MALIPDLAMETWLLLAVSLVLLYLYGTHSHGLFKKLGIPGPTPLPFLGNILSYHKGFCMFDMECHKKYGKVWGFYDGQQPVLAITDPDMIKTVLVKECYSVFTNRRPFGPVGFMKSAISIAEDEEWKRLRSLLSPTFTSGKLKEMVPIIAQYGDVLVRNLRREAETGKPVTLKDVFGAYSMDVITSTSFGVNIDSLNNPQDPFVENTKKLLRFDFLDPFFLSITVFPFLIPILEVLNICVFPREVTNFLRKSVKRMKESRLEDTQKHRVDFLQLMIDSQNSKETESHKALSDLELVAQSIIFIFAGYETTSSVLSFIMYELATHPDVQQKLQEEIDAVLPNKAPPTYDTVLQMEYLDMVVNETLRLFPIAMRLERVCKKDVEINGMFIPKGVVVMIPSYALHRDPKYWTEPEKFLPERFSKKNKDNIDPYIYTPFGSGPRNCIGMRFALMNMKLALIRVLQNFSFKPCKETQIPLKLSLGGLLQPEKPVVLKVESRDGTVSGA
Sequence of Cytochrome P450 2C9 (P11712 whole entry): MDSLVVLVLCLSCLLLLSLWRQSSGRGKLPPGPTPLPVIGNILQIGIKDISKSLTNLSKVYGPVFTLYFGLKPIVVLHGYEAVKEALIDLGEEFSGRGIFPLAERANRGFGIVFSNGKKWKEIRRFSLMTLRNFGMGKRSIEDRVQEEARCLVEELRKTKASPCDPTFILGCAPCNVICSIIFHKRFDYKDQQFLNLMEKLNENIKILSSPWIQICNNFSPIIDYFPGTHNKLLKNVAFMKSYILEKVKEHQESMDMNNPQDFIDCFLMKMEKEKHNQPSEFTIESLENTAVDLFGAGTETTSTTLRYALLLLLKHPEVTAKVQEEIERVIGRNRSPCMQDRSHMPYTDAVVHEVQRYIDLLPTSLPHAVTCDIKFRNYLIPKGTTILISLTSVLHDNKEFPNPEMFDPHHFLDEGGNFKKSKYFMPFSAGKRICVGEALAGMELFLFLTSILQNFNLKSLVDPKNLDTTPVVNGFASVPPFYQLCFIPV
Sequence of Histamine H3 receptor (Rattus norvegicus, UniProt Q9QYN8) (Q9QYN8 whole entry): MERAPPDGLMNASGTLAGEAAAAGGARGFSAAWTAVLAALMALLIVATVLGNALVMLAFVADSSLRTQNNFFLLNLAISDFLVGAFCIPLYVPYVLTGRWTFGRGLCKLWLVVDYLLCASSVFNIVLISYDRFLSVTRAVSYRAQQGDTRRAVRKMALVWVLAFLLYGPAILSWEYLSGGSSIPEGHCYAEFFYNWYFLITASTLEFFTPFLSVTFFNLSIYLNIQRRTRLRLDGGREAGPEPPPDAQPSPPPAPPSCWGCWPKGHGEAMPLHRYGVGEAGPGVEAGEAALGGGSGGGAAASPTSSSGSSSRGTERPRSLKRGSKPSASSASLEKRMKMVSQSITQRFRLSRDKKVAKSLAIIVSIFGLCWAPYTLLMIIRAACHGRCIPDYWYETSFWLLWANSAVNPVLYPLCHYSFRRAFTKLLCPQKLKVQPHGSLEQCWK
T1 sequence (Q9Y5N1 whole entry): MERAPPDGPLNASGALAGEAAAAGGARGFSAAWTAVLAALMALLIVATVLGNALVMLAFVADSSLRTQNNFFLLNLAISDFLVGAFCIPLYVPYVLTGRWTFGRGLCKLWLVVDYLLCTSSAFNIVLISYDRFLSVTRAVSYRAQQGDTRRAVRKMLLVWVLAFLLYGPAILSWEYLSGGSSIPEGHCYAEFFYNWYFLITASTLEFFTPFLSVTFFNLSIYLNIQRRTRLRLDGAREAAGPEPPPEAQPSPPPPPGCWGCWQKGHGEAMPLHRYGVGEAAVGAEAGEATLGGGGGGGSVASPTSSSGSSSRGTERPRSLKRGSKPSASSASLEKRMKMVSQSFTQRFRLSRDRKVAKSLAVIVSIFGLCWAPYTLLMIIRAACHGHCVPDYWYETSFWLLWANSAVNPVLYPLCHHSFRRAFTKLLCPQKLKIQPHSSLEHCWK
Sequence of Histamine H4 receptor (Homo sapiens) (Q9H3N8 whole entry): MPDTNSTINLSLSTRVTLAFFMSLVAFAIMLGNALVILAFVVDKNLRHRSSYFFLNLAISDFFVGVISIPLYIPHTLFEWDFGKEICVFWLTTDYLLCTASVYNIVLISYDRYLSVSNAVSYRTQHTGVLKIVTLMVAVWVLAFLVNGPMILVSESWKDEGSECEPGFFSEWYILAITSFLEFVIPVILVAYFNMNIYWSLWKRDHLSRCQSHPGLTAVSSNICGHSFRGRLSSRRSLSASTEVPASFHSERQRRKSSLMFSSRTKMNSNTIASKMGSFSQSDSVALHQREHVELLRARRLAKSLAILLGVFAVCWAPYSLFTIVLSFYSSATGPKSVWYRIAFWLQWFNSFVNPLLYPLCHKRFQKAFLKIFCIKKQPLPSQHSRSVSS
Sequence of Histamine H2 receptor (Homo sapiens) (P25021 whole entry): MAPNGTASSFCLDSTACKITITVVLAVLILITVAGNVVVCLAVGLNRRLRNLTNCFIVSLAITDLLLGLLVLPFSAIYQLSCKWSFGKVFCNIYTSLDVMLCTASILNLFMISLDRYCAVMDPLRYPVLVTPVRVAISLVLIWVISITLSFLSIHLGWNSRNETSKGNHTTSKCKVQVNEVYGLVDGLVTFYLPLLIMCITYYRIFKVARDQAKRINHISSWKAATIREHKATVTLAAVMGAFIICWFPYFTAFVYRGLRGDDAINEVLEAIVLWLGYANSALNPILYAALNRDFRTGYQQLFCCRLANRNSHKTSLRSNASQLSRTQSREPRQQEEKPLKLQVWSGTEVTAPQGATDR
Sequence of Histamine H3 receptor (Rattus norvegicus) (Q9QYN8 whole entry): as the sequence (Q9QYN8 whole entry) above

As for `O=S(=O)(C1CC1)N1CCC(Oc2ccc3c(c2)CCC2(CCN(C4CCC4)CC2)O3)CC1`, the IC50 against Cytochrome P450 2C9, against Cytochrome P450 2C19, against Cytochrome P450 3A4, on Cytochrome P450 1A2 and at Cytochrome P450 2D6 was above 30000 nM each time. Also, in [1], the solubility (in general, how much of the substance goes into solution per volume) is above 100 µg/mL. Also, the half-life (commonly how long it takes for the measured level to halve) in data set [2] is above 40 min; in data set [6], above 40 min; in [11], above 40 min; in data set [12], 108 min; in data set [13] it was above 40 min. Further, the Kp at 1 h in data set [3] worked out at 2. The Cmax (in general, the highest concentration seen after dosing) in data set [4] was 76 ng/mL. The Vd (commonly a proportionality between amount in the body and measured concentration, not a real space) in [5] was determined as 1.6 L/kg. The values for the Ki at Histamine H3 receptor [7] and at Histamine H3 receptor [14] were 9 nM and 18 nM, respectively. In addition, the bioavailability (usually dose-corrected exposure relative to a reference, in per cent) in data set [8] worked out at 5%. For the same compound, the clearance – broadly, a measure of how efficiently the substance is removed, as volume per time – in [9] is 10 mL/min/kg. The total exposure AUC(0-inf) – broadly, total exposure, with the tail of the curve extrapolated – in data set [10] worked out at 435 ng·h/mL.

In the case of `Oc1ccc2c(c1)CCC1(CCN(C3CCC3)CC1)O2`, the inhibition (against Histamine H3 receptor [15]; in data set [16]) was 50% throughout. Further, the Ki at Histamine H3 receptor [7] and on Histamine H3 receptor [14] was above 3000 nM throughout.

Regarding `CS(=O)(=O)N1CCC(Oc2ccc3c(c2)CCC2(CCN(C4CCC4)CC2)O3)CC1`, the IC50 (in general, the midpoint of a concentration-inhibition curve) at Cytochrome P450 2C9 was above 30000 nM; against Cytochrome P450 2C19, above 30000 nM; against Cytochrome P450 3A4, above 30000 nM; at Cytochrome P450 1A2, above 30000 nM; on Cytochrome P450 2D6, 18000 nM. This compound gave a solubility in data set [1] above 100 µg/mL. The half-life is above 40 min in [2]; above 40 min in data set [6]; above 40 min in data set [11]; 36 min in data set [12]; above 40 min in data set [13]. The Kp at 1 h in [3] was determined as 1.5. Further, the inhibition in [17], in [18] and in data set [19] was below 20% in each case. In [4], this compound had a Cmax of 83 ng/mL. In addition, the volume of distribution (Vd) in data set [5] amounted to 0.5 L/kg. Also, the inhibition constant (Ki) (commonly the dissociation constant of the complex between target and ligand, obtained from inhibition or displacement) was found to be 7 nM at Histamine H3 receptor [7] and 17 nM on Histamine H3 receptor [14]. In [8], this compound displayed a bioavailability of 4%. This compound showed a clearance in data set [9] of 9 mL/min/kg. This compound also came in with an AUC(0-inf) in data set [10] of 392 ng·h/mL.

As for `CC(C)S(=O)(=O)N1CCC(Oc2ccc3c(c2)CCC2(CCN(C4CCC4)CC2)O3)CC1`, the Ki at Histamine H3 receptor [7] turned out to be 7 nM; at Histamine H3 receptor [14] it was 27 nM.

For `CCS(=O)(=O)N1CCC(Oc2ccc3c(c2)CCC2(CCN(C4CCC4)CC2)O3)CC1`, the Ki at Histamine H3 receptor [7] came to 7 nM; on Histamine H3 receptor [14], 24 nM.

Consider `CC(C)(C)OC(=O)N1CCC(Oc2ccc3c(c2)CCC2(CCN(C4CCC4)CC2)O3)CC1`, for which the Ki at Histamine H3 receptor [7] came to 47 nM; on Histamine H3 receptor [14] it was 40 nM.

For the compound `CC(C)C(=O)N1CCC(Oc2ccc3c(c2)CCC2(CCN(C4CCC4)CC2)O3)CC1`, the IC50 on Cytochrome P450 2C9, at Cytochrome P450 2C19, against Cytochrome P450 3A4, against Cytochrome P450 1A2 and at Cytochrome P450 2D6 was above 30000 nM each time. The same compound gave a solubility in data set [1] above 100 µg/mL. In addition, the half-life in data set [2] was above 40 min; in [6], above 40 min; in data set [11] it was above 40 min; in [12], 66 min; in [13], above 40 min. Besides, the Kp at 1 h in data set [3] was 2.3. The highest concentration (Cmax) in data set [4] was 80 ng/mL. This compound gave a Vd in [5] of 1.9 L/kg. The inhibitory constant (Ki) was 2 nM on Histamine H3 receptor [7] and 6 nM on Histamine H3 receptor [14]. This compound displayed a bioavailability in data set [8] of 9%. The same compound had a clearance in [9] of 18 mL/min/kg. Moreover, in data set [10], the area under the curve AUC(0-inf) is 410 ng·h/mL.

`c1cc2c(cc1OC1CCNCC1)CCC1(CCN(C3CCC3)CC1)O2`: the figures for the Ki on Histamine H3 receptor [7] and on Histamine H3 receptor [14] were 3 nM and 6 nM, respectively.

Take `CC(=O)N1CCC(Oc2ccc3c(c2)CCC2(CCN(C4CCC4)CC2)O3)CC1`: the 50% inhibitory concentration (IC50) against Cytochrome P450 2C9, at Cytochrome P450 2C19, on Cytochrome P450 3A4, at Cytochrome P450 1A2 and on Cytochrome P450 2D6 was above 30000 nM in each case. In addition, the half-life in data set [2], in [6], in data set [11] and in data set [13] was above 40 min throughout. Also, the Ki is 4 nM on Histamine H3 receptor [7] and 10 nM on Histamine H3 receptor [14].

For `O=C(C1CC1)N1CCC(Oc2ccc3c(c2)CCC2(CCN(C4CCC4)CC2)O3)CC1`, the IC50 on Cytochrome P450 2C9, at Cytochrome P450 2C19, against Cytochrome P450 3A4, against Cytochrome P450 1A2 and at Cytochrome P450 2D6 was above 30000 nM each time. Besides, in data set [1], the solubility is above 100 µg/mL. Further, the half-life in data set [2] is above 40 min; in data set [6] it was above 40 min; in [11], above 40 min; in data set [12] it was 96 min; in data set [13], above 40 min. Besides, in data set [3], the Kp at 1 h amounted to 2.3. Besides, the concentration in data set [4] peaked (Cmax) at 71 ng/mL. Further, the Vd in [5] came out at 2.7 L/kg. Moreover, the Ki on Histamine H3 receptor [7] was found to be 6 nM; on Histamine H3 receptor [14] it was 16 nM. Further, in data set [8], the bioavailability was 8%. Besides, in data set [9], the clearance stood at 20 mL/min/kg. This compound showed an AUC(0-inf) in [10] of 359 ng·h/mL.
